The values below come from PubChem BioAssay (NCI).

Structures are written as SMILES.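 The compound was tested at five concentrations on cells cultured in 96-well plates, with a 48-hour exposure period. GI50 marks 50% less growth. TGI marks complete inhibition of growth.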 A value given as a limit tells only on which side of the number the result lay.

Common to all, as to experiment: DTP human tumour cell line panel, 48 h
The subject of experiment [1] is SW-620 colon.
Experiment [2] has as its system OVCAR-5 ovarian.
The test system of experiment [3] is UACC-257 melanoma.
Experiment [4] relates to CAKI-1 renal.
Experiment [5] relates to SN12C renal.
Experiment [6] concerns M14 melanoma.
Experiment [7] relates to UACC-62 melanoma.
Experiment [8] deals with NCI-H23 lung.
For experiment [9], the system named is SNB-75 CNS.
Experiment [10] relates to SK-MEL-5 melanoma.

The term TGI denotes the concentration at which net growth stops. The low end stands for more potent growth arrest, the high end for less potent growth arrest. Consider `Cn1c(=O)c2c(ncn2CN2CCN(Cn3cnc4c3c(=O)n(C)c(=O)n4C)CC2)n(C)c1=O`, for which the TGI in experiment [1], in experiment [2], in [3], in [4], in experiment [5] and in [6] was more than 100 µM each time. The TGI in [7], in [8], in experiment [9] and in experiment [10] was more than 100 µM throughout.

For `CCOC(=O)C(/C=N\C(=S)Nc1ccc(OCC)cc1)=C(/O)c1ccccc1`, the concentration for total growth inhibition (TGI) in experiment [1], in experiment [2], in experiment [3], in experiment [4], in [5] and in experiment [6] was more than 100 µM in each case. Moreover, the concentration for total growth inhibition (TGI) in [7], in experiment [8], in experiment [9] and in [10] was more than 100 µM each time.

The term GI50 denotes the concentration that inhibits growth by half. Consider `Cc1cc(N/N=C/c2nc(-c3ccc(Cl)cc3)oc2C)c2cc(Cl)ccc2n1`, for which the GI50 in experiment [1] was 1.56 µM; in experiment [2], 8.08 µM; in experiment [3], 1.93 µM; in experiment [4], 2 µM; in experiment [5], 1.94 µM; in experiment [6] it was 1.96 µM. Further, the GI50 in experiment [7] was 1.8 µM; in [8], 5.34 µM; in experiment [9] it was 1.68 µM; in experiment [10], 8.64 µM. Besides, the TGI was 3.51 µM in experiment [1]; 20.6 µM in [2]; 4.52 µM in experiment [3]; 4.33 µM in [4]; 4.16 µM in [5]; 4.13 µM in [6]. Further, the total growth inhibition concentration (TGI) in experiment [7] came out at 3.54 µM; in experiment [8], 19.1 µM; in [9], 3.68 µM; in experiment [10], 20.8 µM.

`Cc1ccc(SC(=O)N2C(=S)NC(=NC3CCCCC3)C23CCCCC3)cc1`: the TGI in experiment [1], in experiment [2], in experiment [3], in experiment [4], in [5] and in experiment [6] was more than 100 µM in each case. Moreover, the TGI in experiment [7], in experiment [8], in [9] and in experiment [10] was more than 100 µM each time.

On to `COc1ccc(-c2cn[nH]c2-c2cc(OC)c3c(c2)OCCO3)cc1`, for which the GI50 in experiment [1] is 0.0506 µM; in [2], 0.683 µM; in [3] it was 14.8 µM; in [4], 0.143 µM; in [5], 1.28 µM; in [6], 0.0694 µM. Further, the GI50 in experiment [7] is 0.0758 µM; in experiment [8], 0.599 µM; in [9], 0.122 µM; in experiment [10], 0.0717 µM. Moreover, the TGI is more than 72.5 µM in experiment [1]; more than 100 µM in experiment [2]; 55.4 µM in experiment [3]; 58.4 µM in [4]; 73.7 µM in experiment [5]; 21.1 µM in [6]. Besides, the concentration for total growth inhibition (TGI) is 17.6 µM in [7], more than 100 µM in experiment [8], 0.738 µM in experiment [9] and 8.08 µM in [10].

`O=C1CCCN1CC#CCN1CCCC1`: the GI50 in experiment [1], in experiment [2], in experiment [3], in [4], in [5] and in experiment [6] was more than 100 µM each time. The GI50 in experiment [7], in experiment [8], in [9] and in experiment [10] was more than 100 µM in each case. Also, the concentration for total growth inhibition (TGI) in experiment [1], in experiment [2], in experiment [3], in experiment [4], in [5] and in [6] was more than 100 µM each time. For the same compound, the TGI in experiment [7], in experiment [8], in experiment [9] and in experiment [10] was more than 100 µM each time.

For the compound `COc1ccc2c(c1)[n+]([O-])c(/C(C)=N/NC(=O)CC#N)c[n+]2[O-]`, the concentration for total growth inhibition (TGI) in experiment [1] was 25.8 µM; in experiment [2], more than 100 µM; in experiment [3], more than 100 µM; in experiment [4], more than 100 µM; in [5], more than 100 µM; in experiment [6] it was more than 100 µM. The TGI in [7], in experiment [8], in experiment [9] and in experiment [10] was more than 100 µM each time.

With `N#C[C@@H]1C(n2ccc(N)nc2=O)O[C@H](CO)[C@H]1O` (stereo not given in full), the GI50 in [1] was 53.6 µM; in experiment [2], more than 75.2 µM; in experiment [3], more than 93.3 µM; in experiment [4], 3.49 µM; in experiment [5], 9.69 µM; in experiment [6], 2.97 µM. Further, the GI50 in experiment [7] is 28 µM; in [8], 4.51 µM; in experiment [9], more than 100 µM; in [10] it was 38.3 µM. The TGI in experiment [1], in [2], in experiment [3], in experiment [4], in experiment [5] and in experiment [6] was more than 100 µM each time. For the same compound, the TGI in experiment [7], in experiment [8], in experiment [9] and in experiment [10] was more than 100 µM throughout.

As for `COC(=O)C1=C(CS(=O)c2ccccc2[N+](=O)[O-])ON(C)C1c1ccccc1` (stereo not given), the TGI is 88.6 µM in [1]; more than 100 µM in experiment [2]; more than 100 µM in [3]; more than 100 µM in experiment [4]; 42.6 µM in experiment [5]; more than 100 µM in experiment [6]. For the same compound, the TGI in experiment [7] was more than 100 µM; in experiment [8] it was more than 100 µM; in experiment [9] it was 84.5 µM; in experiment [10], more than 100 µM.

With `CCN(CCNc1ccc(C)c2sc3ccccc3c(=O)c12)CC(C)(C)O`, the GI50 was 4.63 µM in experiment [1]; 16.8 µM in [2]; 2.15 µM in experiment [3]; 5.35 µM in experiment [4]; 13.2 µM in experiment [5]; 4.21 µM in [6]. The GI50 in [7] is 2.9 µM; in experiment [8], 15.4 µM; in experiment [9], 15.7 µM; in experiment [10] it was 2.31 µM. Moreover, the TGI in experiment [1] stood at 15.8 µM; in experiment [2], 36.5 µM; in experiment [3], 5.43 µM; in experiment [4], 22.4 µM; in experiment [5], 28.3 µM; in experiment [6] it was 12.2 µM. The TGI in experiment [7] was 9.48 µM; in experiment [8], 41.8 µM; in experiment [9], 48.6 µM; in experiment [10], 6.17 µM.

For the compound `Cc1c2cc[n+](C)cc2c(C)c2c1[nH]c1ccc(O)c(OCC(F)(F)F)c12`, the TGI is more than 55 µM in experiment [1]; 30.5 µM in experiment [2]; 18.9 µM in experiment [3]; 29 µM in [4]; 4.11 µM in experiment [5]; 15.7 µM in experiment [6]. For the same compound, the TGI in experiment [7] was 25.2 µM; in experiment [8], 5.48 µM; in [9] it was 1.35 µM; in [10], 11.6 µM.

For the compound `C1=CC=C2NCCOCCNC3=CC=CC=CC3=NCCOCCN=C2C=C1`, the concentration for total growth inhibition (TGI) was more than 100 µM in [1]; more than 100 µM in experiment [2]; 44.6 µM in experiment [3]; more than 100 µM in experiment [4]; more than 100 µM in experiment [5]; 41.6 µM in experiment [6]. In addition, the TGI in experiment [7], in experiment [8], in experiment [9] and in experiment [10] was more than 100 µM in each case.

On to `CC(C)Oc1cc(O)c2c(c1)OCC=C2CCC(=O)O`, for which the TGI in experiment [1] was more than 100 µM; in [2], more than 100 µM; in experiment [3], 61.4 µM; in experiment [4], more than 100 µM; in experiment [5] it was 69.3 µM; in experiment [6], 98.6 µM. Also, the TGI is more than 100 µM in [7], more than 100 µM in experiment [8], more than 100 µM in experiment [9] and 36.5 µM in experiment [10].

As to `CC(C)(C)NC(=O)[C@H]1C[C@H]2CCCC[C@H]2CN1C[C@@H](O)[C@H](Cc1ccccc1)NC(=O)[C@H](CC(N)=O)NC(=O)c1ccc2ccccc2n1`, the GI50 in experiment [1] was 20.3 µM; in experiment [2], 16.7 µM; in experiment [3] it was 13.4 µM; in experiment [4], 16.4 µM; in experiment [5], 13.9 µM; in experiment [6] it was 13.3 µM. The GI50 in [7] is 13.6 µM; in experiment [8], 16 µM; in experiment [9], 12.5 µM; in [10] it was 14.5 µM. For the same compound, the TGI in experiment [1] came to 48.8 µM; in experiment [2], 30.5 µM; in [3], 28.2 µM; in [4], 33.1 µM; in experiment [5], 27.8 µM; in [6], 28 µM. Besides, the TGI is 27.7 µM in [7], 33.2 µM in experiment [8], 28.4 µM in experiment [9] and 30 µM in experiment [10].
